Test results from PMC4534092, “Novel Penicillin Analogues as Potential Antimicrobial Agents; Design, Synthesis and Docking Studies” (PLoS ONE, 2015).

Molecular target: MurC (UDP-N-acetylmuramic acid:L-alanine ligase) (Escherichia coli, UniProt P17952)
Assay: Malachite green phosphate detection enzyme assay with […] MurC
Format: biochemical

MurC (UDP-N-acetylmuramic acid:L-alanine ligase), sequence (P17952 whole entry): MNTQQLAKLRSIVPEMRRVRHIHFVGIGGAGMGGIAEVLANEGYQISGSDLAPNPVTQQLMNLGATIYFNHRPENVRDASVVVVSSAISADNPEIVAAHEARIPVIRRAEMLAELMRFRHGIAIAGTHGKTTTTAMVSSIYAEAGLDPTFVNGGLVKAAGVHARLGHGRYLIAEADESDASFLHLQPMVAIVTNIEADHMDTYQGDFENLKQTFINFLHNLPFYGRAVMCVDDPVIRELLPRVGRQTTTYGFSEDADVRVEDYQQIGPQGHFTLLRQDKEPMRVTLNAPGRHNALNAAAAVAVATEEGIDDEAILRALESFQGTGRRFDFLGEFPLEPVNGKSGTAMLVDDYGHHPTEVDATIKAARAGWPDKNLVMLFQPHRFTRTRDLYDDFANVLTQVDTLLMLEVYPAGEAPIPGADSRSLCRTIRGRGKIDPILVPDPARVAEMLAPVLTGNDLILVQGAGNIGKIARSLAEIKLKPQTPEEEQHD

Structure (SMILES)	IC50 [µM]
COc1ccc2cc(C(C)C(=O)NC3C(=O)N4C3SC(C)(C)C4C(=O)O)ccc2c1 [4e, (2S,5R,6S)-6-(3'-(11'-methoxynaphthalen-5'-yl)propanamido)-3,3-dimethyl-7-oxo-4-thia-1-azabicyclo[3.2.0]heptane-2-carboxylic acid]	12.5
Nc1ncnc2c1ncn2[C@@H]1O[C@H](COP(=O)(O)OP(=O)(O)CP(=O)(O)O)[C@@H](O)[C@H]1O [AMP-PCP]	17
